According to PubChem BioAssay AID256 (DTP/NCI, 2004):
Several values for one entry are separate records, joined by “and”; a condition that tells them apart may be missing. Equal entries are not always repeated. Toxic doses and inconclusive results are not listed. Rule for the calls: active = survival T/C of 150% or more; inactive = T/C below 125% in these data.

System: CD2F1 mice, L1210 leukemia ip, survival T/C
Assay: NCI In Vivo Anticancer Drug Screen. Data for tumor model L1210 Leukemia (intraperitoneal) in CD2F1 (CDF1) mice
Conditions: higher = longer survival
Procedure, shortened: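 Tumor-bearing mice (transplanted tumor) were split into treated and vehicle control groups, and the measured endpoint of each treated group was divided by that of its vehicle controls.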

[1] = endpoint: mean survival time, dose: 50.0 mg/kg/injection, schedule: Q01DX009 (ip), vehicle: saline with Tween-80
[2] = endpoint: mean survival time, dose: 100.0 mg/kg/injection, schedule: Q01DX009 (ip), vehicle: saline with Tween-80
[3] = endpoint: mean survival time, dose: 200.0 mg/kg/injection, schedule: Q01DX009 (ip), vehicle: saline with Tween-80
[4] = endpoint: mean survival time, dose: 100.0 mg/kg/injection, schedule: Q04DX003 (ip), vehicle: saline with Tween-80
[5] = endpoint: mean survival time, dose: 200.0 mg/kg/injection, schedule: Q04DX003 (ip), vehicle: saline with Tween-80
[6] = endpoint: mean survival time, dose: 400.0 mg/kg/injection, schedule: Q04DX003 (ip), vehicle: saline with Tween-80
[7] = endpoint: mean survival time, dose: 400.0 mg/kg/injection, schedule: Q01DX009 (ip), vehicle: saline with Tween-80
[8] = endpoint: mean survival time, dose: 100.0 mg/kg/injection, schedule: Q04DX003 (ip), vehicle: saline
[9] = endpoint: mean survival time, dose: 200.0 mg/kg/injection, schedule: Q04DX003 (ip), vehicle: saline
[10] = endpoint: mean survival time, dose: 400.0 mg/kg/injection, schedule: Q04DX003 (ip), vehicle: saline
[11] = endpoint: mean survival time, dose: 100.0 mg/kg/injection, schedule: Q01DX001 (ip), vehicle: saline with Tween-80
[12] = endpoint: mean survival time, dose: 200.0 mg/kg/injection, schedule: Q01DX001 (ip), vehicle: saline with Tween-80
[13] = endpoint: mean survival time, dose: 400.0 mg/kg/injection, schedule: Q01DX001 (ip), vehicle: saline with Tween-80
[14] = endpoint: mean survival time, dose: 5.0 mg/kg/injection, schedule: Q01DX001 (ip), vehicle: saline
[15] = endpoint: mean survival time, dose: 10.0 mg/kg/injection, schedule: Q01DX001 (ip), vehicle: saline
[16] = endpoint: mean survival time, dose: 20.0 mg/kg/injection, schedule: Q01DX001 (ip), vehicle: saline

Measured: T/C

Nc1cccc(OCc2ccc([N+](=O)[O-])cc2)c1
inactive: endpoint: mean survival time, dose: 100.0 mg/kg/injection, schedule: Q04DX002 (ip), vehicle: Klucel (hydroxypropylcellulose) (HPC) 86 % of control | endpoint: mean survival time, dose: 200.0 mg/kg/injection, schedule: Q04DX002 (ip), vehicle: Klucel (hydroxypropylcellulose) (HPC) 107 % of control | endpoint: mean survival time, dose: 400.0 mg/kg/injection, schedule: Q04DX002 (ip), vehicle: Klucel (hydroxypropylcellulose) (HPC) 95 % of control

CC/C=C(/CC)C1CCCCC1C (stereo not given)
inactive: [1] 87 % of control | [2] 96 % of control | [3] 96 % of control

COc1ccc(C(O)c2ccccc2C(=O)Nc2ccccc2)cc1 (stereo not given)
inactive: [4] 93 % of control | [5] 92 % of control | [6] 88 % of control

CC(=O)Nc1ccc(S(=O)(=O)CO)cc1
inactive: endpoint: mean survival time, dose: 12.5 mg/kg/injection, schedule: Q01DX009 (ip), vehicle: saline with Tween-80 97 % of control | endpoint: mean survival time, dose: 25.0 mg/kg/injection, schedule: Q01DX009 (ip), vehicle: saline with Tween-80 92 % of control and 97 % of control | [1] 102 % of control and 108 % of control | [2] 101 % of control and 108 % of control | [3] 101 % of control and 103 % of control | [7] 101 % of control and 109 % of control

O=C(O)CC(CC(=O)O)C(=O)O
inactive: [8] 101 % of control | [9] 103 % of control | [10] 101 % of control

O=C1C(Cl)(Cl)C(=O)C(Cl)(Cl)C(=O)C1(Cl)Cl
inactive: endpoint: mean survival time, dose: 25.0 mg/kg/injection, schedule: Q04DX002 (ip), vehicle: saline with Tween-80 97 % of control | endpoint: mean survival time, dose: 50.0 mg/kg/injection, schedule: Q04DX002 (ip), vehicle: saline with Tween-80 94 % of control

COc1ccc([C@@]23Oc4cc(OC)cc(OC)c4[C@]2(O)[C@H](O)[C@H](C(=O)N(C)C)[C@H]3c2ccccc2)cc1
inactive: endpoint: median survival time, dose: 0.25 mg/kg/injection, schedule: Q01DX009 (ip), vehicle: Klucel (hydroxypropylcellulose) (HPC) 101 % of control | endpoint: median survival time, dose: 0.5 mg/kg/injection, schedule: Q01DX009 (ip), vehicle: Klucel (hydroxypropylcellulose) (HPC) 97 % of control | endpoint: median survival time, dose: 1.0 mg/kg/injection, schedule: Q01DX009 (ip), vehicle: Klucel (hydroxypropylcellulose) (HPC) 102 % of control | endpoint: median survival time, dose: 2.0 mg/kg/injection, schedule: Q01DX009 (ip), vehicle: Klucel (hydroxypropylcellulose) (HPC) 113 % of control | endpoint: median survival time, dose: 4.0 mg/kg/injection, schedule: Q01DX009 (ip), vehicle: Klucel (hydroxypropylcellulose) (HPC) 108 % of control

CC(=O)Nc1ccc2c(c1)CCC2=O
inactive: [11] 91 % of control | [12] 95 % of control | [13] 98 % of control

Oc1c(Br)cc(Br)cc1C=Nc1ccc(Br)cc1
inactive: [4] 110 % of control | [5] 97 % of control | [6] 95 % of control

O=CO.[Mn]
inactive: [14] 96 % of control | [15] 101 % of control | [16] 96 % of control | endpoint: mean survival time, dose: 40.0 mg/kg/injection, schedule: Q01DX001 (ip), vehicle: saline 96 % of control | endpoint: mean survival time, dose: 80.0 mg/kg/injection, schedule: Q01DX001 (ip), vehicle: saline 98 % of control

Cc1cccc(/C=N\OCCc2ccccc2)n1
inactive: [2] 94 % of control | [4] 100 % of control | [3] 98 % of control | [5] 96 % of control | [7] 93 % of control | [6] 91 % of control

O=S(=O)(O)c1ccc(Nc2ccccc2)cc1
inactive: [2] 105 % of control | [8] 104 % of control | [3] 97 % of control | [9] 106 % of control | [7] 103 % of control | [10] 100 % of control

CC[S-].CC[S-].[Ni+2]
inactive: [14] 103 % of control | [15] 103 % of control | [16] 103 % of control

CSc1ncc(C=O)c(N)n1
inactive: [11] 96 % of control | [12] 97 % of control | [13] 95 % of control

OCC1OC(n2cnc3c2NC=NC[C@H]3O)CC1O (stereo not given in full)
inactive: endpoint: mean survival time, dose: 0.13 mg/kg/injection, schedule: Q01DX005 (ip), vehicle: water 93 % of control | endpoint: mean survival time, dose: 0.13 mg/kg/injection, schedule: Q01DX009 (ip), vehicle: water 95 % of control | endpoint: mean survival time, dose: 0.2 mg/kg/injection, schedule: Q03HX024 (ip), vehicle: saline with Tween-80 102 % of control | endpoint: mean survival time, dose: 0.25 mg/kg/injection, schedule: Q01DX005 (ip), vehicle: water 108 % of control | endpoint: mean survival time, dose: 0.25 mg/kg/injection, schedule: Q01DX009 (ip), vehicle: water 101 % of control | endpoint: mean survival time, dose: 0.25 mg/kg/injection, schedule: Q04DX002 (ip), vehicle: water 94 % of control | endpoint: mean survival time, dose: 0.25 mg/kg/injection, schedule: Q04DX003 (ip), vehicle: water 99 % of control | endpoint: mean survival time, dose: 0.3 mg/kg/injection, schedule: Q03HX024 (ip), vehicle: saline with Tween-80 101 % of control | endpoint: mean survival time, dose: 0.4 mg/kg/injection, schedule: Q03HX024 (ip), vehicle: saline with Tween-80 115 % of control and 103 % of control | endpoint: mean survival time, dose: 0.5 mg/kg/injection, schedule: Q03HX024 (ip), vehicle: saline with Tween-80 116 % of control | endpoint: mean survival time, dose: 0.5 mg/kg/injection, schedule: Q04DX002 (ip), vehicle: water 101 % of control | endpoint: mean survival time, dose: 0.5 mg/kg/injection, schedule: Q04DX003 (ip), vehicle: water 96 % of control | endpoint: mean survival time, dose: 0.6 mg/kg/injection, schedule: Q03HX024 (ip), vehicle: saline with Tween-80 110 % of control | endpoint: mean survival time, dose: 0.75 mg/kg/injection, schedule: Q03HX024 (ip), vehicle: saline with Tween-80 111 % of control | endpoint: median survival time, dose: 0.1 mg/kg/injection, schedule: Q01DX009 (ip), vehicle: saline 101 % of control | endpoint: median survival time, dose: 0.13 mg/kg/injection, schedule: Q01DX009 (ip), vehicle: saline 102 % of control | endpoint: median survival time, dose: 0.21 mg/kg/injection, schedule: Q01DX009 (ip), vehicle: saline 113 % of control | endpoint: median survival time, dose: 0.25 mg/kg/injection, schedule: Q01DX009 (ip), vehicle: saline 104 % of control and 108 % of control | endpoint: median survival time, dose: 0.25 mg/kg/injection, schedule: Q03HX012 (ip), vehicle: saline 112 % of control | endpoint: median survival time, dose: 0.3 mg/kg/injection, schedule: Q01DX009 (ip), vehicle: saline 104 % of control | endpoint: median survival time, dose: 0.5 mg/kg/injection, schedule: Q01DX009 (ip), vehicle: saline 104 % of control and 110 % of control | endpoint: median survival time, dose: 0.5 mg/kg/injection, schedule: Q03HX012 (ip), vehicle: saline 113 % of control | endpoint: median survival time, dose: 1.0 mg/kg/injection, schedule: Q01DX009 (ip), vehicle: saline 108 % of control | endpoint: median survival time, dose: 2.0 mg/kg/injection, schedule: Q01DX009 (ip), vehicle: saline 102 % of control | endpoint: median survival time, dose: 3.0 mg/kg/injection, schedule: Q01DX005 (ip), vehicle: saline 95 % of control | endpoint: median survival time, dose: 3.0 mg/kg/injection, schedule: Q01DX009 (ip), vehicle: saline 109 % of control | endpoint: median survival time, dose: 4.0 mg/kg/injection, schedule: Q01DX005 (ip), vehicle: saline 100 % of control | endpoint: median survival time, dose: 5.0 mg/kg/injection, schedule: Q01DX005 (ip), vehicle: saline 97 % of control | endpoint: median survival time, dose: 6.0 mg/kg/injection, schedule: Q01DX005 (ip), vehicle: saline 97 % of control | endpoint: median survival time, dose: 7.0 mg/kg/injection, schedule: Q01DX005 (ip), vehicle: saline 104 % of control | endpoint: median survival time, dose: 10.0 mg/kg/injection, schedule: Q01DX009 (ip), vehicle: saline 109 % of control
